Source: PubChem BioAssay (NCI)
Values joined by “and” are separate entries in the source; they are usually repeats but may differ in a detail not shown here. Equal values may be shown once.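 Protocol summary: plate cells (96-well), add compound at 5 concentrations, incubate 48 h, interpolate endpoints linearly. At the GI50, growth is halved. TGI denotes the concentration required for complete inhibition of growth.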

Key:
Assay in all cases: NCI-60 cell line screen, 48 h
786-0 renal = tested on: 786-0 renal
A498 renal = tested on: A498 renal
A549 NSCLC = tested on: A549 NSCLC
ACHN renal = tested on: ACHN renal
CCRF-CEM leukemia = tested on: CCRF-CEM leukemia
COLO 205 colon = tested on: COLO 205 colon
DU-145 prostate = tested on: DU-145 prostate
EKVX NSCLC = tested on: EKVX NSCLC
HCC-2998 colon = tested on: HCC-2998 colon
HCT-116 colon = tested on: HCT-116 colon
HCT-15 colon = tested on: HCT-15 colon
HL-60(TB) leukemia = tested on: HL-60(TB) leukemia
HOP-62 NSCLC = tested on: HOP-62 NSCLC
HT29 colon = tested on: HT29 colon
IGROV1 ovarian = tested on: IGROV1 ovarian
K-562 leukemia = tested on: K-562 leukemia
KM12 colon = tested on: KM12 colon
LOX IMVI melanoma = tested on: LOX IMVI melanoma
M14 melanoma = tested on: M14 melanoma
MALME-3M melanoma = tested on: MALME-3M melanoma
MCF7 breast = tested on: MCF7 breast
MDA-MB-231 breast = tested on: MDA-MB-231 breast
MDA-MB-435 = tested on: MDA-MB-435
MDA-N = tested on: MDA-N
MOLT-4 leukemia = tested on: MOLT-4 leukemia
NCI-H226 lung = tested on: NCI-H226 lung
NCI-H23 lung = tested on: NCI-H23 lung
NCI-H460 lung = tested on: NCI-H460 lung
NCI-H522 lung = tested on: NCI-H522 lung
NCI/ADR-RES ovarian = tested on: NCI/ADR-RES ovarian
OVCAR-3 ovarian = tested on: OVCAR-3 ovarian
OVCAR-4 ovarian = tested on: OVCAR-4 ovarian
OVCAR-5 ovarian = tested on: OVCAR-5 ovarian
OVCAR-8 ovarian = tested on: OVCAR-8 ovarian
PC-3 prostate = tested on: PC-3 prostate
RXF 393 renal = tested on: RXF 393 renal
SF-268 CNS = tested on: SF-268 CNS
SF-295 CNS = tested on: SF-295 CNS
SF-539 CNS = tested on: SF-539 CNS
SK-MEL-2 melanoma = tested on: SK-MEL-2 melanoma
SK-MEL-28 melanoma = tested on: SK-MEL-28 melanoma
SK-MEL-5 melanoma = tested on: SK-MEL-5 melanoma
SK-OV-3 ovarian = tested on: SK-OV-3 ovarian
SN12C renal = tested on: SN12C renal
SNB-19 CNS = tested on: SNB-19 CNS
SNB-75 CNS = tested on: SNB-75 CNS
SR leukemia = tested on: SR leukemia
SW-620 colon = tested on: SW-620 colon
T-47D breast = tested on: T-47D breast
TK-10 renal = tested on: TK-10 renal
U251 CNS = tested on: U251 CNS
UACC-257 melanoma = tested on: UACC-257 melanoma
UACC-62 melanoma = tested on: UACC-62 melanoma
UO-31 renal = tested on: UO-31 renal
CAKI-1 renal = tested on: CAKI-1 renal
HOP-92 NSCLC = tested on: HOP-92 NSCLC
HS 578T breast = tested on: HS 578T breast

## CC(=O)OCC1OC(n2c(-c3ccccc3)c(C(C)=O)c(-c3cccc4ccccc34)c(C#N)c2=S)C(OC(C)=O)C(OC(C)=O)C1OC(C)=O (stereo not drawn)
786-0 renal
  TGI: > 100 µM
A498 renal
  TGI: > 100 µM
A549 NSCLC
  TGI: > 100 µM
ACHN renal
  TGI: > 100 µM
CCRF-CEM leukemia
  TGI: > 100 µM
COLO 205 colon
  TGI: > 100 µM
DU-145 prostate
  TGI: > 100 µM
EKVX NSCLC
  TGI: > 100 µM
HCC-2998 colon
  TGI: > 100 µM
HCT-116 colon
  TGI: > 100 µM
HCT-15 colon
  TGI: > 100 µM
HL-60(TB) leukemia
  TGI: > 100 µM
HOP-62 NSCLC
  TGI: > 100 µM
HT29 colon
  TGI: > 100 µM
IGROV1 ovarian
  TGI: > 100 µM
K-562 leukemia
  TGI: > 100 µM
KM12 colon
  TGI: > 100 µM
LOX IMVI melanoma
  TGI: > 100 µM
M14 melanoma
  TGI: > 100 µM
MALME-3M melanoma
  TGI: > 100 µM
MCF7 breast
  TGI: > 100 µM
MDA-MB-231 breast
  TGI: > 100 µM
MDA-MB-435
  TGI: > 100 µM
MDA-N
  TGI: > 100 µM
MOLT-4 leukemia
  TGI: > 100 µM
NCI-H226 lung
  TGI: > 100 µM
NCI-H23 lung
  TGI: > 100 µM
NCI-H460 lung
  TGI: > 100 µM
NCI-H522 lung
  TGI: > 100 µM
NCI/ADR-RES ovarian
  TGI: > 100 µM
OVCAR-3 ovarian
  TGI: > 100 µM
OVCAR-4 ovarian
  TGI: > 100 µM
OVCAR-5 ovarian
  TGI: > 100 µM
OVCAR-8 ovarian
  TGI: > 100 µM
PC-3 prostate
  TGI: > 100 µM
RXF 393 renal
  TGI: > 100 µM
SF-268 CNS
  TGI: > 100 µM
SF-295 CNS
  TGI: > 100 µM
SF-539 CNS
  TGI: > 100 µM
SK-MEL-2 melanoma
  TGI: > 100 µM
SK-MEL-28 melanoma
  TGI: > 100 µM
SK-MEL-5 melanoma
  TGI: > 100 µM
SK-OV-3 ovarian
  TGI: > 100 µM
SN12C renal
  TGI: > 100 µM
SNB-19 CNS
  TGI: > 100 µM
SNB-75 CNS
  GI50: 22 nM
  TGI: > 100 µM
SR leukemia
  TGI: > 100 µM
SW-620 colon
  TGI: > 100 µM
T-47D breast
  TGI: > 100 µM
TK-10 renal
  TGI: > 100 µM
U251 CNS
  TGI: > 100 µM
UACC-257 melanoma
  TGI: > 100 µM
UACC-62 melanoma
  GI50: 80.4 µM and 26.7 µM
  TGI: > 100 µM
UO-31 renal
  TGI: 25.2 nM

## CC(=O)OC(C)(C)/C(C)=C/C(=O)O[C@H]1C(=O)O[C@@H]2C[C@H]3[C@H](C)C(=O)C(O[C@@H]4O[C@H](CO)[C@@H](O)[C@H](O)[C@H]4O)=C[C@]3(C)[C@H]3[C@@H](O)[C@H](O)[C@@]4(C(=O)O)OC[C@]32[C@@H]14
786-0 renal
  GI50: > 100 µM
  TGI: > 100 µM
A498 renal
  GI50: > 100 µM
  TGI: > 100 µM
A549 NSCLC
  GI50: > 100 µM
  TGI: > 100 µM
ACHN renal
  GI50: > 100 µM
  TGI: > 100 µM
CAKI-1 renal
  GI50: > 100 µM
  TGI: > 100 µM
CCRF-CEM leukemia
  GI50: 43.8 µM
  TGI: > 100 µM
COLO 205 colon
  GI50: > 100 µM
  TGI: > 100 µM
DU-145 prostate
  GI50: > 100 µM
  TGI: > 100 µM
EKVX NSCLC
  GI50: > 100 µM
  TGI: > 100 µM
HCC-2998 colon
  GI50: 36.5 µM
  TGI: > 100 µM
HCT-116 colon
  GI50: 37.5 µM
  TGI: > 100 µM
HCT-15 colon
  GI50: > 100 µM
  TGI: > 100 µM
HL-60(TB) leukemia
  GI50: 48.2 µM
  TGI: > 100 µM
HOP-62 NSCLC
  GI50: 69.1 µM
  TGI: > 100 µM
HOP-92 NSCLC
  GI50: 65.7 µM
  TGI: > 100 µM
HS 578T breast
  GI50: > 100 µM
  TGI: > 100 µM
HT29 colon
  GI50: > 100 µM
  TGI: > 100 µM
IGROV1 ovarian
  GI50: > 100 µM
  TGI: > 100 µM
K-562 leukemia
  GI50: 39.5 µM
  TGI: > 100 µM
KM12 colon
  GI50: > 100 µM
  TGI: > 100 µM
LOX IMVI melanoma
  TGI: > 100 µM
M14 melanoma
  GI50: > 100 µM
  TGI: > 100 µM
MALME-3M melanoma
  GI50: 55.9 µM
  TGI: > 100 µM
MCF7 breast
  GI50: 27.6 µM
  TGI: > 100 µM
MDA-MB-231 breast
  GI50: > 100 µM
  TGI: > 100 µM
MDA-MB-435
  GI50: > 100 µM
  TGI: > 100 µM
MDA-N
  GI50: > 100 µM
  TGI: > 100 µM
MOLT-4 leukemia
  GI50: 33.9 µM
  TGI: > 100 µM
NCI-H226 lung
  GI50: 72.8 µM
  TGI: > 100 µM
NCI-H23 lung
  GI50: > 100 µM
  TGI: > 100 µM
NCI-H460 lung
  GI50: 39.5 µM
  TGI: > 100 µM
NCI-H522 lung
  GI50: 18.7 µM
  TGI: 49.5 µM
NCI/ADR-RES ovarian
  GI50: > 100 µM
  TGI: > 100 µM
OVCAR-3 ovarian
  GI50: 25.9 µM
  TGI: > 100 µM
OVCAR-4 ovarian
  GI50: > 100 µM
  TGI: > 100 µM
OVCAR-5 ovarian
  GI50: > 100 µM
  TGI: > 100 µM
OVCAR-8 ovarian
  GI50: > 100 µM
  TGI: > 100 µM
PC-3 prostate
  GI50: > 100 µM
  TGI: > 100 µM
RXF 393 renal
  GI50: 37.3 µM
  TGI: > 100 µM
SF-268 CNS
  GI50: > 100 µM
  TGI: > 100 µM
SF-539 CNS
  GI50: 55.9 µM
  TGI: > 100 µM
SK-MEL-2 melanoma
  GI50: > 100 µM
  TGI: > 100 µM
SK-MEL-28 melanoma
  TGI: > 100 µM
SK-OV-3 ovarian
  GI50: > 100 µM
  TGI: > 100 µM
SN12C renal
  GI50: > 100 µM
  TGI: > 100 µM
SNB-19 CNS
  GI50: > 100 µM
  TGI: > 100 µM
SNB-75 CNS
  GI50: > 100000 nM
  TGI: > 100 µM
SR leukemia
  GI50: 48.5 µM
  TGI: > 100 µM
SW-620 colon
  GI50: > 100 µM
  TGI: > 100 µM
T-47D breast
  GI50: > 100 µM
  TGI: > 100 µM
TK-10 renal
  GI50: > 100 µM
  TGI: > 100 µM
U251 CNS
  TGI: > 100 µM
UACC-257 melanoma
  GI50: > 100 µM
  TGI: > 100 µM
UACC-62 melanoma
  GI50: > 100 µM
  TGI: > 100 µM
UO-31 renal
  GI50: > 100 µM
  TGI: > 100000 nM
